According to patent US12398117B2, “Heteroarylamidopyridinol derivative and pharmaceutical composition comprising same as active ingredient for prevention or treatment of autoimmune disease” (INNOVO THERAPEUTICS INC., priority 2019, dated 2025):

Tests used:
[1] = system: adhesion of intestinal epithelial cells (HT-29) and monocytic cells (U937) induced by TNF-α; experiment: Inhibition of TNF-α-induced adhesion of monocytes and intestinal epithelial cells; format: cell-based, human; details: for inhibition at 1 µM: Homo sapiens, read-out: Inhibitory activity (%)
Method: HT-29 human colon cancer-derived epithelial cells and U937 human-derived monocytes were cultured in RPMI 1640 medium containing 10% FBS and 1% penicillin/streptomycin (PS) in a 37° C., 5% CO2 incubator. When the cells grew more than 80% of the bottom area of the culture flask, they were passaged at a ratio of 1:3 and used in this experiment. HT-29 cells were cultured in a 24-well plate at the density of 2×10^5 cells/cm^2, and the test drug was pretreated in a medium containing 1% FBS and 1% PS for 1 hour. Thereafter, 10 μg/mL of BCECF-AM was treated thereto and reacted at 37° C. for 30 minutes. U937 cells loaded with BCECF and TNF-α (10 ng/mL) were reacted with HT-29 cells previously treated with the test drug at 37° C. for 3 hours. Upon completion of the reaction, the medium was removed, and the culture flask was washed twice with PBS to remove non-adherent U937 cells. In the next step, the cells were lysed by treating with 0.1% Triton X-100 (0.1 M Tris) and reacted at room temperature for 30 minutes. Then, fluorescence was measured and quantified using a fluostar optima microplate reader (BMG Labtechnologies, Germany) (Carvalho et al., 1996; Thapa et al., 2008).

[2] = system: adhesion of intestinal epithelial cells (HT-29) and monocytic cells (U937) induced by IL-6; experiment: Inhibition of IL-6-induced adhesion of monocytes and intestinal epithelial cells; format: cell-based, human; details: for inhibition at 1 µM: Homo sapiens, 3 h, test drug 1 μM, IL-6 10 ng/mL, HT-29/U937, read-out: inhibitory activity (%)
Method: The inhibitory activity test for intestinal epithelial cell-monocyte adhesion by IL-6 was performed using the same method as in the case of TNF-α. HT-29 cells were cultured in a 24-well plate at the density of 2×10^5 cells/cm^2, and the test drug was pretreated in a medium containing 1% FBS and 1% PS for 1 hour. Thereafter, 10 μg/mL of BCECF-AM was treated thereto and reacted at 37° C. for 30 minutes. U937 cells loaded with BCECF and IL-6 (10 ng/mL) were reacted with HT-29 cells previously treated with the test drug at 37° C. for 3 hours. Upon completion of the reaction, the medium was removed, and the culture flask was washed twice with PBS to remove non-adherent U937 cells. In the next step, the cells were lysed by treating with 0.1% Triton X-100 (0.1 M Tris) and reacted at room temperature for 30 minutes. Then, fluorescence was measured and quantified using a fluostar optima microplate reader (BMG Labtechnologies, Germany).

[3] = test drug 1 μM, TNF-α 10 ng/mL, HT-29/U937

| SMILES | IC50 ([1]; inhibition of adhesion by TNF-α) [mM] | Inhibitory activity (%) [1, 3] [%] | IC50 ([2]; inhibition of adhesion by IL-6) [mM] | inhibition at 1 µM [1, 3] [%] | inhibition at 1 µM [2] [%] |
| --- | --- | --- | --- | --- | --- |
| Nc1ccc(O)c(C(=O)O)c1 [Compound 5-ASA, 5-ASA, reference compound] | 18.1 | 3.8 | 25.1 |  |  |
| Cc1nc(NC(=O)c2cc3ccccc3[nH]2)c(C)c(C)c1O [Compound X-01, N-(5-hydroxy-3,4,6-trimethylpyridin-2-yl)-1H-indole-2-carboxamide] |  |  |  | 43.2 | 34 |
| Cc1nc(NC(=O)c2cc3ccccc3n2C)c(C)c(C)c1O [Compound X-02, N-(5-hydroxy-3,4,6-trimethylpyridin-2-yl)-1-methyl-1H-indole-2-carboxamide] |  |  |  | 29.1 | 21.1 |
| Cc1nc(NC(=O)c2cc3cccc(Br)c3[nH]2)c(C)c(C)c1O [Compound X-03, 7-bromo-N-(5-hydroxy-3,4,6-trimethylpyridin-2-yl)-1H-indole-2-carboxamide] |  |  |  | 14.5 | 5 |
| Cc1nc(NC(=O)c2cc3ccc(Cl)cc3[nH]2)c(C)c(C)c1O [Compound X-04, 6-chloro-N-(5-hydroxy-3,4,6-trimethylpyridin-2-yl)-1H-indole-2-carboxamide] |  |  |  | 30.3 | 25.1 |
| Cc1nc(NC(=O)c2cc3ccc(Br)cc3[nH]2)c(C)c(C)c1O [Compound X-05, 6-bromo-N-(5-hydroxy-3,4,6-trimethylpyridin-2-yl)-1H-indole-2-carboxamide] |  |  |  | 7.5 | 3.4 |
| Cc1nc(NC(=O)c2cc3cc(F)ccc3[nH]2)c(C)c(C)c1O [Compound X-06, 5-fluoro-N-(5-hydroxy-3,4,6-trimethylpyridin-2-yl)-1H-indole-2-carboxamide] |  |  |  | 49.9 | 42.9 |
| Cc1nc(NC(=O)c2cc3cc(Cl)ccc3[nH]2)c(C)c(C)c1O [Compound X-08, 5-chloro-N-(5-hydroxy-3,4,6-trimethylpyridin-2-yl)-1H-indole-2-carboxamide] |  |  |  | 31 | 21.3 |
| Cc1nc(NC(=O)c2cc3cc(C(F)(F)F)ccc3[nH]2)c(C)c(C)c1O [Compound X-10, N-(5-hydroxy-3,4,6-trimethylpyridin-2-yl)-5-(trifluoromethyl)-1H-indole-2-carboxamide] |  |  |  | ≥ 50 | 47.9 |
| Cc1nc(NC(=O)c2cc3cc(OC(F)(F)F)ccc3[nH]2)c(C)c(C)c1O [Compound X-11, N-(5-hydroxy-3,4,6-trimethylpyridin-2-yl)-5-(trifluoromethoxy)-1H-indole-2-carboxamide] |  |  |  | 32.8 | 24.2 |
| COc1ccc2cc(C(=O)Nc3nc(C)c(O)c(C)c3C)[nH]c2c1 [Compound X-12, N-(5-hydroxy-3,4,6-trimethylpyridin-2-yl)-6-methoxy-1H-indole-2-carboxamide] |  |  |  | ≥ 50 | 46 |
| COc1ccc2[nH]c(C(=O)Nc3nc(C)c(O)c(C)c3C)cc2c1 [Compound X-13, N-(5-hydroxy-3,4,6-trimethylpyridin-2-yl)-5-methoxy-1H-indole-2-carboxamide] |  |  |  | 36.7 | 23.4 |
| COc1cc2cc(C(=O)Nc3nc(C)c(O)c(C)c3C)[nH]c2cc1OC [Compound X-14, N-(5-hydroxy-3,4,6-trimethylpyridin-2-yl)-5,6-dimethoxy-1H-indole-2-carboxamide] |  |  |  | 36.9 | 29.5 |
| Cc1nc(NC(=O)c2cc3ccccc3o2)c(C)c(C)c1O [Compound X-15, N-(5-hydroxy-3,4,6-trimethylpyridin-2-yl)benzofuran-2-carboxamide] |  |  |  | 4.8 | 42.4 |
| Cc1nc(NC(=O)c2cc3cc(Cl)ccc3o2)c(C)c(C)c1O [Compound X-16, 5-chloro-N-(5-hydroxy-3,4,6-trimethylpyridin-2-yl)benzofuran-2-carboxamide] |  |  |  | 25.1 | 15.1 |
| Cc1nc(NC(=O)c2cc3cc(Br)ccc3o2)c(C)c(C)c1O [Compound X-17, 5-bromo-N-(5-hydroxy-3,4,6-trimethylpyridin-2-yl)benzofuran-2-carboxamide] |  |  |  | 8.5 | 3.6 |
| COc1cccc2cc(C(=O)Nc3nc(C)c(O)c(C)c3C)oc12 [Compound X-18, N-(5-hydroxy-3,4,6-trimethylpyridin-2-yl)-7-methoxybenzofuran-2-carboxamide] |  |  |  | ≥ 50 | 48.8 |
| Cc1nc(NC(=O)c2oc3ccccc3c2C)c(C)c(C)c1O [Compound X-19, N-(5-hydroxy-3,4,6-trimethylpyridin-2-yl)-3-methylbenzofuran-2-carboxamide] |  |  |  | 25.1 | 18.7 |
| Cc1nc(NC(=O)c2cc3ccccc3s2)c(C)c(C)c1O [Compound X-20, N-(5-hydroxy-3,4,6-trimethylpyridin-2-yl)benzo[b]thiophene-2-carboxamide] |  |  |  | 16.5 | 27 |
| Cc1nc(NC(=O)c2sc3ccccc3c2Cl)c(C)c(C)c1O [Compound X-21, 3-chloro-N-(5-hydroxy-3,4,6-trimethylpyridin-2-yl)benzo[b]thiophene-2-carboxamide] |  |  |  | 13.4 | 11.4 |
| Cc1nc(NC(=O)c2sc3ccccc3c2Br)c(C)c(C)c1O [Compound X-22, 3-bromo-N-(5-hydroxy-3,4,6-trimethylpyridin-2-yl)benzo[b]thiophene-2-carboxamide] |  |  |  | 26.8 | 19.7 |
| Cc1ccc2c(Cl)c(C(=O)Nc3nc(C)c(O)c(C)c3C)sc2c1 [Compound X-23, 3-chloro-N-(5-hydroxy-3,4,6-trimethylpyridin-2-yl)-6-methylbenzo[b]thiophene-2-carboxamide] |  |  |  | 9.1 | 8.7 |
| Cc1nc(NC(=O)c2sc3cc(Cl)ccc3c2Cl)c(C)c(C)c1O [Compound X-25, 3,6-dichloro-N-(5-hydroxy-3,4,6-trimethylpyridin-2-yl)benzo[b]thiophene-2-carboxamide] |  |  |  | 19.5 | 9 |
| COc1ccc2c(Cl)c(C(=O)Nc3nc(C)c(O)c(C)c3C)sc2c1 [Compound X-26, 3-chloro-N-(5-hydroxy-3,4,6-trimethylpyridin-2-yl)-6-methoxybenzo[b]thiophene-2-carboxamide] |  |  |  | 45.1 | 38.4 |
| COc1c(C)nc(NC(=O)c2sc3cc(F)ccc3c2Cl)c(C)c1C [XI-01, 3-chloro-6-fluoro-N-(5-methoxy-3,4,6-trimethylpyridin-2-yl)benzo[b]thiophene-2-carboxamide] |  |  |  | 9.3 | 4.7 |
| COc1c(C)nc(N(C)C(=O)c2sc3cc(F)ccc3c2Cl)c(C)c1C [XI-02, 3-chloro-6-fluoro-N-(5-methoxy-3,4,6-trimethylpyridin-2-yl)-N-methylbenzo[b]thiophene-2-carboxamide] |  |  |  | 18.5 | 10.9 |
| Cc1nc(NC(=O)c2sc3cc(F)ccc3c2Cl)c(C)c(C)c1OCC(=O)NC(C)C [XI-03, 3-chloro-6-fluoro-N-(5-(2-(isopropylamino)-2-oxoethoxy)-3,4,6-trimethylpyridin-2-yl)benzo[b]thiophene-2-carboxamide] |  |  |  | ≥ 50 | 49.9 |
| Cc1nc(NC(=O)c2sc3cc(F)ccc3c2Cl)c(C)c(C)c1OCC(=O)NC1CC1 [XI-04, 3-chloro-N-(5-(2-(cyclopropylamino)-2-oxoethoxy)-3,4,6-trimethylpyridin-2-yl)-6-fluorobenzo[b]thiophene-2-carboxamide] |  |  |  | 13.9 | 6.5 |
| Cc1nc(NC(=O)c2sc3cc(F)ccc3c2Cl)c(C)c(C)c1OCC(=O)NC1CCCCC1 [XI-05, 3-chloro-N-(5-(2-(cyclohexylamino)-2-oxoethoxy)-3,4,6-trimethylpyridin-2-yl)-6-fluorobenzo[b]thiophene-2-carboxamide] |  |  |  | 25.5 | 14.5 |
| Cc1nc(NC(=O)c2sc3cc(F)ccc3c2Cl)c(C)c(C)c1OCC(=O)NCc1ccccc1 [XI-06, N-(5-(2-(benzylamino)-2-oxoethoxy)-3,4,6-trimethylpyridin-2-yl)-3-chloro-6-fluorobenzo[b]thiophene-2-carboxamide] |  |  |  | ≥ 50 | 54.1 |
